Literature values in patent US7820159B2, “MN/CA IX and EGFR pathway inhibition” (Instiute of Virology of the Slovak Academy of Sciences, priority 2006, dated 2010).

Assays:
[1] = patients
MN = target: T1, MN (Homo sapiens, UniProt Q16790); conditions: patients
T1 construct: Phase I and II clinical trials of an MN-specific drug, Rencarex®; host or cells: endogenous MN/CA IX in human trial patients

tumor xenograft models = conditions: in vivo
[2] = not given; remark: listed apart in the source
MEK = conditions: non-ATP competitive allosteric inhibitors, unlike the majority of ATP-competitive analogs

Rencarex®: an MN-specific drug tested in Phase I and II clinical trials
Drug-related side effects in Phase I and II clinical trials [1]: no serious drug-related side effects
Tolerability in Phase I and II clinical trials (MN): well-tolerated

O=C(NOC[C@H](O)CO)c1ccc(F)c(F)c1Nc1ccc(I)cc1F [PD-0325901]
Metabolic stability compared with CI-1040: improved
Anti-tumor activity in tumor xenograft models (tumor xenograft models): potent anti-tumor activity
Solubility compared with CI-1040 [2]: more soluble

Cn1cnc2c(F)c(Nc3ccc(Br)cc3Cl)c(C(=O)NOCCO)cc21 [ARRY-142886]
Anti-tumor activity in tumor xenograft models (tumor xenograft models): potent anti-tumor activity
Selectivity for MEK in biochemical assays (MEK): high selectivity for MEK
